US7220758B2, “Ether substituted imidazopyridines” (3M Innovative Properties Company, priority 2002, dated 2007)

| SMILES | melting point [°C] |
| --- | --- |
| CCc1nc2c(N)nc(C)c(C)c2n1CCOCCNS(C)(=O)=O [Example 102, N-{2-[2-(4-Amino-2-ethyl-6,7-dimethyl-1H-imidazo[4,5-c]pyridin-1-yl)ethoxy]ethyl}methanesulfonamide] | 145 to 147 |
| CCc1nc2c(N)nc(C)c(C)c2n1CCOCCN1CCCS1(=O)=O [Example 106, 1-{2-[2-(1,1-Dioxidoisothiazolidin-2-yl)ethoxy]ethyl}-2-ethyl-6,7-dimethyl-1H-imidazo[4,5-c]pyridin-4-amine] | 157 to 159 |
| CCCCNC(=O)c1ccc(S(=O)(=O)CCCn2c(CCC)nc3c(N)nc(C)c(C)c32)cc1 [Example 119, 4-[3-(4-Amino-6,7-dimethyl-2-propyl-1H-imidazo[4,5-c]pyridin-1-yl)propane-1-sulfonyl]-N-butylbenzamide] | 147 to 149 |
| CCCc1nc2c(N)nc(C)c(C)c2n1CCCCCS(=O)(=O)c1ccc(F)cc1 [Example 92, 1-[5-(4-Fluorobenzenesulfonyl)pentyl]-6,7-dimethyl-2-propyl-1H-imidazo[4,5-c]pyridin-4-amine] | 130 to 132 |
| Cc1nc(N)c2nc(C)n(CCOCCCc3cccnc3)c2c1C [Example 10, 2,6,7-Trimethyl-1-[2-(3-pyridin-3-ylpropoxy)ethyl]-1H-imidazo[4,5-c]pyridin-4-amine] | 108.6 to 109.5 |
| CCc1nc2c(N)nc(C)c(C)c2n1CCOCCNC(=O)C1CCCCC1 [Example 104, N-{2-[2-(4-Amino-2-ethyl-6,7-dimethyl-1H-imidazo[4,5-c]pyridin-1-yl)ethoxy]ethyl}cyclohexanecarboxamide] | 170 to 172 |
| CCCc1nc2c(N)nc(C)c(C)c2n1CCCCCS(=O)(=O)c1ccc(C(F)(F)F)cc1 | 172 to 173.5 |
| CCc1nc2c(N)nc(C)c(C)c2n1CCOCCNC(=O)NC1CCCCC1 [Example 105] | 187 to 189 |
| CCOCc1nc2c(N)nc(C)c(C)c2n1CCOCCCc1cncnc1 [Example 112, 2-(Ethoxymethyl)-6,7-dimethyl-1-[2-(3-pyrimidin-5-ylpropoxy)ethyl]-1H-imidazo[4,5-c]pyridin-4-amine] | 127 to 129 |
| CCc1nc2c(N)nc(C)c(C)c2n1CCOCCNC(=O)NS(=O)(=O)c1ccccc1 [Example 108, N-[({2-[2-(4-Amino-2-ethyl-6,7-dimethyl-1H-imidazo[4,5-c]pyridin-1-yl)ethoxy]ethyl}amino)carbonyl]benzenesulfonamide] | 201 to 203 |
| CCOCc1nc2c(N)nc(C)c(C)c2n1CCOCc1ccccc1 [Example 4, 1-[2-(Benzyloxy)ethyl]-2-(ethoxymethyl)-6,7-dimethyl-1H-imidazo[4,5-c]pyridin-4-amine] | 107.3 to 108.2 |
| CCCc1nc2c(N)ncc(Br)c2n1CCOCCN [Example 114, 1-[2-(2-Aminoethoxy)ethyl]-7-bromo-2-propyl-1H-imidazo[4,5-c]pyridin-4-amine] | 114 to 117 |
| Cc1nc(N)c2nc(C)n(CCOCc3ccccc3)c2c1C [Example 5, 1-[2-(Benzyloxy)ethyl]-2,6,7-trimethyl-1H-imidazo[4,5-c]pyridin-4-amine] | 136.8 to 137.5 |
| CCOCc1nc2c(N)nc(C)c(C)c2n1CCOCCCc1nccs1 [Example 82, 2-(Ethoxymethyl)-6,7-dimethyl-1-{2-[3-(1,3-thiazol-2-yl)propoxy]ethyl}-1H-imidazo[4,5-c]pyridin-4-amine] | 91 to 92 |
| Cc1nc(N)c2ncn(CCOc3ccccc3)c2c1C [Example 1, 6,7-Dimethyl-1-(2-phenoxyethyl)-1H-imidazo[4,5-c]pyridin-4-amine] | 197 to 199 |
| CCCCN(C)C(=O)c1ccc(S(=O)(=O)CCCn2c(CCC)nc3c(N)nc(C)c(C)c32)cc1 [Example 120, 4-[3-(4-Amino-6,7-dimethyl-2-propyl-1H-imidazo[4,5-c]pyridin-1-yl)propane-1-sulfonyl]-N-butyl-N-methylbenzamide] | 127 to 129 |
| Cc1nc(N)c2nc(C)n(CCOc3ccccc3)c2c1C [Example 2, 2,6,7-Trimethyl-1-(2-phenoxyethyl)-1H-imidazo[4,5-c]pyridin-4-amine] | 176 to 177 |
